Measured values as given in US20060263802A1 (priority 2003, published 2006).

How the values were obtained:
Assay type in all cases: binding
[1] = system: human monoclonal antibody CR57
[2] = system: human monoclonal antibody CRJA
[3] = system: human monoclonal antibody CRJA; remark: listed apart in the source
[4] = system: human monoclonal antibody CRJB
[5] = system: human monoclonal antibody CR57; remark: listed apart in the source
[6] = system: human monoclonal antibody CRJB; remark: listed apart in the source

Row | Sequence | Binding of CR57 to linear peptide (PEPSCAN-ELISA signal) [1] | Binding of CRJA (10 μg/ml) to looped/cyclic peptide (PEPSCAN-ELISA signal) [2] | Binding of CRJA to linear peptide (PEPSCAN-ELISA signal) [3] | Binding of CRJB to linear peptide (PEPSCAN-ELISA signal) [4] | Binding of CR57 (10 μg/ml) to looped/cyclic peptide (PEPSCAN-ELISA signal) [5] | Binding of CRJB (10 μg/ml) to looped/cyclic peptide (PEPSCAN-ELISA signal) [6] | Binding of CRJA (10 μg/ml) to looped/cyclic peptide (PEPSCAN-ELISA) [2] | Binding of CR57 (10 μg/ml) to looped/cyclic peptide (PEPSCAN-ELISA) [5] | Binding of CRJB (10 μg/ml) to looped/cyclic peptide (PEPSCAN-ELISA) [6] | Binding of human monoclonal antibody CR57 to linear peptide (PEPSCAN-ELISA signal) [1] | Binding of CRJA to looped/cyclic peptide (PEPSCAN-ELISA signal) [2] | Binding of human monoclonal antibody CRJA to linear peptide (PEPSCAN-ELISA signal) [3] | Binding of human monoclonal antibody CRJB to linear peptide (PEPSCAN-ELISA signal) [4] | Binding of CR57 to looped/cyclic peptide (PEPSCAN-ELISA signal) [5] | Binding of CRJB to looped/cyclic peptide (PEPSCAN-ELISA signal) [6] | binding of antibody CRJA to looped/cyclic peptide (PEPSCAN OD) [2]
1 | CTGVVTEAENYTNFV | 76 | 101 | 89 | 123 | 92 | 85 | – | – | – | – | – | – | – | – | – | –
2 | CTNLSGFSYMELKVG | 47 | 79 | 84 | 110 | 70 | 96 | – | – | – | – | – | – | – | – | – | –
3 | DACRAAYNWKMAGDP | 84 | 110 | 83 | 113 | 133 | 77 | – | – | – | – | – | – | – | – | – | –
4 | DAHYKSVRTWNEILP | 59 | – | 107 | 121 | – | – | 98 | 90 | 100 | – | – | – | – | – | – | –
5 | DALESIMTTKSVSFR | 104 | – | 105 | 120 | – | – | 110 | 127 | 127 | – | – | – | – | – | – | –
6 | DEAEDFVEVHLPDVH | – | – | – | – | – | – | – | – | – | 68 | 98 | 105 | 136 | 89 | 104 | –
7 | DEGCTNLSGFSYMEL | 1 | 57 | 54 | 23 | 1 | 60 | – | – | – | – | – | – | – | – | – | –
8 | DEIEHLVVEELVRKR | 94 | – | 90 | 123 | – | – | 106 | 113 | 106 | – | – | – | – | – | – | –
9 | DERGLYKSLKGACKL | 90 | – | 76 | 119 | – | – | 85 | 152 | 123 | – | – | – | – | – | – | –
10 | DFRSDEIEHLVVEEL | 99 | – | 86 | 103 | – | – | 93 | 127 | 58 | – | – | – | – | – | – | –
11 | DFVEVHLPDVHNQVS | – | – | – | – | – | – | – | – | – | 96 | 113 | 92 | 141 | 113 | 92 | –
12 | DGDEAEDFVEVHLPD | – | – | – | – | – | – | – | – | – | 85 | 71 | 97 | 123 | 71 | 102 | –
13 | DGNVLIPEMQSSLLQ | 123 | – | 93 | 134 | – | – | 107 | 114 | 104 | – | – | – | – | – | – | –
14 | DGTWVAMQTSNETKW | 69 | – | 63 | 114 | – | – | 45 | 56 | 58 | – | – | – | – | – | – | –
15 | DIFTNSRGKRASKGS | 70 | 99 | 114 | 107 | 80 | 82 | – | – | – | – | – | – | – | – | – | –
16 | DIHHLSCPNNLVVED | 38 | 62 | 61 | 96 | 52 | 48 | – | – | – | – | – | – | – | – | – | –
17 | DKLGPWSPIDIHHLS | 62 | 89 | 78 | 103 | 104 | 70 | – | – | – | – | – | – | – | – | – | –
18 | DLDPYDRSLHSRVFP | 111 | 92 | 107 | 152 | 90 | 68 | – | – | – | – | – | – | – | – | – | –
19 | DPRYEESLHNPYPDY | 57 | 91 | 92 | 110 | 76 | 65 | – | – | – | – | – | – | – | – | – | –
20 | DPSTVFKDGDEAEDF | – | – | – | – | – | – | – | – | – | 98 | 110 | 132 | 147 | 134 | 110 | –
21 | DPYDRSLHSRVFPSG | 90 | 186 | 92 | 120 | 106 | 71 | – | – | – | – | – | – | – | – | – | clearly bound
22 | DQLVNLHDFRSDEIE | 54 | – | 88 | 117 | – | – | 63 | 46 | 27 | – | – | – | – | – | – | –
23 | DRSLHSRVFPSGKCS | 98 | 99 | 187 | 142 | 91 | 100 | – | – | – | – | – | – | – | – | – | –
24 | DVHNQVSGVDLGLPN | – | – | – | – | – | – | – | – | – | 117 | 99 | 124 | 133 | 120 | 113 | –
25 | DYRWLRTVKTTKESL | 54 | 45 | 55 | 111 | 46 | 49 | – | – | – | – | – | – | – | – | – | –
26 | DYTIWMPENPRLGMS | 93 | 86 | 106 | 127 | 83 | 66 | – | – | – | – | – | – | – | – | – | –
27 | EADAHYKSVRTWNEI | 58 | – | 79 | 97 | – | – | 63 | 78 | 76 | – | – | – | – | – | – | –
28 | EAEDFVEVHLPDVHN | – | – | – | – | – | – | – | – | – | 76 | 105 | 97 | 117 | 98 | 93 | –
29 | EAENYTNFVGYVTTT | 69 | 54 | 62 | 117 | 55 | 60 | – | – | – | – | – | – | – | – | – | –
